Columns and labels:
Assay type in all cases: in vivo
[1] = test system: Italian ryegrass (Lolium multiflorum); assay: Test B pre-/postemergence plant response
In short: (§1)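 Scoring used a 0–100 scale (100 = complete control) by visual comparison with untreated plants after approximately 10 days in the greenhouse. Compounds, in surfactant-containing non-phytotoxic solvent, were sprayed onto soil at planting or onto 2–10 cm seedlings.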

[2] = test system: barnyardgrass (Echinochloa crus-galli); assay: Test B pre-/postemergence plant response
In short: as §1

corn (Zea mays) = assay: Test B pre-/postemergence plant response
In short: as §1

[3] = test system: giant foxtail (Setaria faberii); assay: Test B pre-/postemergence plant response
In short: as §1

kochia (Kochia scoparia) = assay: Test B pre-/postemergence plant response
In short: as §1

[4] = test system: pigweed (Amaranthus retroflexus); assay: Test B pre-/postemergence plant response
In short: as §1

[5] = test system: ragweed (common ragweed, Ambrosia elatior); assay: Test B pre-/postemergence plant response
In short: as §1

[6] = test system: wheat (Triticum aestivum); assay: Test B pre-/postemergence plant response
In short: as §1

[7] = test system: blackgrass (Alopecurus myosuroides); assay: Test B postemergence plant response
In short: (§2)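 Pots, loam soil + sand; postemergence treatment at 1–2 leaf stage, 2–10 cm; greenhouse ~10 d; visual injury score 0 (none) to 100 (complete control) relative to untreated controls.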

[8] = test system: galium (catchweed bedstraw, Galium aparine); assay: Test B postemergence plant response
In short: as §2

[9] = test system: barnyardgrass (Echinochloa crus-galli); assay: Test C flooded paddy test plant response; conditions: Flood, 250 g ai/ha; scale of 0 to 100 where 0 is no effect and 100 is complete control; 13 to 15 days
In short: (§3)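 2-leaf plants; flood 3 cm, cpd into paddy water; greenhouse 13–15 d; visual score vs untreated, 0 = no effect, 100 = complete control; dash = no result.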

[10] = test system: ducksalad (Heteranthera limosa); assay: Test C flooded paddy test plant response; conditions: Flood, 250 g ai/ha; scale of 0 to 100 where 0 is no effect and 100 is complete control; 13 to 15 days
In short: as §3

rice (Oryza sativa) = assay: Test C flooded paddy test plant response; conditions: Flood, 250 g ai/ha; scale of 0 to 100 where 0 is no effect and 100 is complete control; 13 to 15 days
In short: as §3

[11] = test system: small-flower umbrella sedge (Cyperus difformis); assay: Test C flooded paddy test plant response; conditions: Flood, 250 g ai/ha; scale of 0 to 100 where 0 is no effect and 100 is complete control; 13 to 15 days
In short: as §3

[12] = 125 g ai/ha, postemergence, 0 to 100 scale, 0 no effect, 100 complete control
[13] = Postemergence, 500 g ai/ha, 0 to 100 scale (0 no effect, 100 complete control)
[14] = Preemergence, 125 g ai/ha, 0 to 100 scale (0 no effect, 100 complete control)
[15] = Preemergence, 500 g ai/ha, 0 to 100 scale where 0 is no effect and 100 is complete control
[16] = Postemergence, 1000 g ai/ha, 0 to 100 scale (0 no effect, 100 complete control)
[17] = Preemergence, 1000 g ai/ha, 0 to 100 scale (0 no effect, 100 complete control)
[18] = 31 g ai/ha, Preemergence, 0 to 100 scale where 0 is no effect and 100 is complete control
[19] = Postemergence, 31 g ai/ha, 0 to 100 scale (0 no effect, 100 complete control)

Clc1cnc(Oc2ccccc2-c2ccc(Br)s2)nc1 [Compound 181]
Plant response rating, Ryegrass, Italian [1, 12]: 0
Plant response rating, Ryegrass, Italian [1, 13]: 0
Ryegrass, Italian plant response rating [1, 14]: 0
Plant response rating, Ryegrass, Italian [1, 15]: 0
Plant response rating, Barnyardgrass [2, 12]: 10
Plant response rating, Barnyardgrass [2, 13]: 20
Barnyardgrass plant response rating [2, 14]: 0
Plant response rating, Barnyardgrass [2, 15]: 10
Plant response rating, Corn (corn (Zea mays); [12]): 10
Plant response rating, Corn (corn (Zea mays); [13]): 10
Plant response rating, Foxtail, Giant [3, 12]: 0
Plant response rating, Foxtail, Giant [3, 13]: 20
Foxtail, Giant plant response rating [3, 14]: 0
Plant response rating, Foxtail, Giant [3, 15]: 40
Plant response rating, Kochia (kochia (Kochia scoparia); [12]): 30
Plant response rating, Kochia (kochia (Kochia scoparia); [13]): 50
Kochia plant response rating (kochia (Kochia scoparia); [14]): 0
Plant response rating, Kochia (kochia (Kochia scoparia); [15]): 0
Plant response rating, Pigweed [4, 12]: 50
Plant response rating, Pigweed [4, 13]: 90
Pigweed plant response rating [4, 14]: 10
Plant response rating, Pigweed [4, 15]: 80
Plant response rating, Ragweed [5, 12]: 10
Plant response rating, Ragweed [5, 13]: 10
Ragweed plant response rating [5, 14]: 0
Plant response rating, Ragweed [5, 15]: 0
Plant response rating, Wheat [6, 12]: 0
Plant response rating, Wheat [6, 13]: 0
Plant response rating, Blackgrass [7, 12]: 0
Plant response rating, Blackgrass [7, 13]: 10
Plant response rating, Galium [8, 12]: 10
Plant response rating, Galium [8, 13]: 50
Barnyardgrass plant response rating [9]: 0
Ducksalad plant response rating [10]: 0
Rice plant response rating (rice (Oryza sativa)): 0
Sedge, Umbrella plant response rating [11]: 0

Clc1cnc(Oc2ccccc2-c2cccs2)nc1 [Compound 182]
Plant response rating, Ryegrass, Italian [1, 12]: 0
Plant response rating, Ryegrass, Italian [1, 13]: 0
Ryegrass, Italian plant response rating [1, 14]: 0
Plant response rating, Ryegrass, Italian [1, 15]: 10
Plant response rating, Barnyardgrass [2, 12]: 0
Plant response rating, Barnyardgrass [2, 13]: 10
Barnyardgrass plant response rating [2, 14]: 0
Plant response rating, Barnyardgrass [2, 15]: 20
Plant response rating, Corn (corn (Zea mays); [12]): 10
Plant response rating, Corn (corn (Zea mays); [13]): 20
Plant response rating, Foxtail, Giant [3, 12]: 0
Plant response rating, Foxtail, Giant [3, 13]: 50
Foxtail, Giant plant response rating [3, 14]: 0
Plant response rating, Foxtail, Giant [3, 15]: 40
Plant response rating, Kochia (kochia (Kochia scoparia); [12]): 30
Plant response rating, Kochia (kochia (Kochia scoparia); [13]): 80
Kochia plant response rating (kochia (Kochia scoparia); [14]): 0
Plant response rating, Kochia (kochia (Kochia scoparia); [15]): 30
Plant response rating, Pigweed [4, 12]: 40
Plant response rating, Pigweed [4, 13]: 80
Pigweed plant response rating [4, 14]: 0
Plant response rating, Pigweed [4, 15]: 40
Plant response rating, Ragweed [5, 12]: 0
Plant response rating, Ragweed [5, 13]: 10
Ragweed plant response rating [5, 14]: 0
Plant response rating, Ragweed [5, 15]: 10
Plant response rating, Wheat [6, 12]: 0
Plant response rating, Wheat [6, 13]: 0
Plant response rating, Blackgrass [7, 12]: 0
Plant response rating, Blackgrass [7, 13]: 10
Plant response rating, Galium [8, 12]: 30
Plant response rating, Galium [8, 13]: 50
Barnyardgrass plant response rating [9]: 0
Ducksalad plant response rating [10]: 0
Rice plant response rating (rice (Oryza sativa)): 0
Sedge, Umbrella plant response rating [11]: 0

FC(F)c1cc(-c2ccccc2Oc2ncc(Cl)cn2)ncn1 [Compound 184]
Plant response rating, Ryegrass, Italian [1, 12]: 0
Plant response rating, Ryegrass, Italian [1, 13]: 20
Ryegrass, Italian plant response rating [1, 14]: 0
Plant response rating, Ryegrass, Italian [1, 15]: 10
Plant response rating, Barnyardgrass [2, 12]: 0
Plant response rating, Barnyardgrass [2, 13]: 50
Barnyardgrass plant response rating [2, 14]: 10
Plant response rating, Barnyardgrass [2, 15]: 90
Plant response rating, Corn (corn (Zea mays); [12]): 10
Plant response rating, Corn (corn (Zea mays); [13]): 20
Plant response rating, Foxtail, Giant [3, 12]: 10
Plant response rating, Foxtail, Giant [3, 13]: 70
Foxtail, Giant plant response rating [3, 14]: 20
Plant response rating, Foxtail, Giant [3, 15]: 90
Plant response rating, Kochia (kochia (Kochia scoparia); [12]): 70
Plant response rating, Kochia (kochia (Kochia scoparia); [13]): 100
Kochia plant response rating (kochia (Kochia scoparia); [14]): 20
Plant response rating, Kochia (kochia (Kochia scoparia); [15]): 100
Plant response rating, Pigweed [4, 12]: 90
Plant response rating, Pigweed [4, 13]: 100
Pigweed plant response rating [4, 14]: 80
Plant response rating, Pigweed [4, 15]: 100
Plant response rating, Ragweed [5, 12]: 20
Plant response rating, Ragweed [5, 13]: 40
Ragweed plant response rating [5, 14]: 0
Plant response rating, Ragweed [5, 15]: 50
Plant response rating, Wheat [6, 12]: 0
Plant response rating, Wheat [6, 13]: 10
Plant response rating, Blackgrass [7, 12]: 10
Plant response rating, Blackgrass [7, 13]: 60
Plant response rating, Galium [8, 12]: 70
Plant response rating, Galium [8, 13]: 100
Barnyardgrass plant response rating [9]: 0
Ducksalad plant response rating [10]: 0
Rice plant response rating (rice (Oryza sativa)): 0
Sedge, Umbrella plant response rating [11]: 0

Clc1cnc(Oc2ccccc2-c2ccc(Cl)nn2)nc1 [Compound 186]
Plant response rating, Ryegrass, Italian [1, 16]: 0
Plant response rating, Ryegrass, Italian [1, 17]: 0
Plant response rating, Barnyardgrass [2, 16]: 0
Plant response rating, Barnyardgrass [2, 17]: 20
Plant response rating, Corn (corn (Zea mays); [16]): 0
Plant response rating, Foxtail, Giant [3, 16]: 30
Plant response rating, Foxtail, Giant [3, 17]: 100
Plant response rating, Kochia (kochia (Kochia scoparia); [16]): 30
Plant response rating, Kochia (kochia (Kochia scoparia); [17]): 100
Plant response rating, Pigweed [4, 16]: 20
Plant response rating, Pigweed [4, 17]: 100
Plant response rating, Ragweed [5, 16]: 50
Plant response rating, Ragweed [5, 17]: 70
Plant response rating, Wheat [6, 16]: 0
Plant response rating, Blackgrass [7, 16]: 20
Plant response rating, Galium [8, 16]: 20
Barnyardgrass plant response rating [9]: 0
Ducksalad plant response rating [10]: 0
Rice plant response rating (rice (Oryza sativa)): 0
Sedge, Umbrella plant response rating [11]: 0

Cc1ccnc(-c2ccccc2Oc2ncc(Cl)cn2)c1 [Compound 187]
Plant response rating, Ryegrass, Italian [1, 18]: 0
Plant response rating, Ryegrass, Italian [1, 12]: 0
Plant response rating, Ryegrass, Italian [1, 19]: 0
Ryegrass, Italian plant response rating [1, 14]: 0
Plant response rating, Barnyardgrass [2, 18]: 0
Plant response rating, Barnyardgrass [2, 12]: 0
Plant response rating, Barnyardgrass [2, 19]: 0
Barnyardgrass plant response rating [2, 14]: 0
Plant response rating, Corn (corn (Zea mays); [12]): 0
Plant response rating, Corn (corn (Zea mays); [19]): 0
Plant response rating, Foxtail, Giant [3, 18]: 0
Plant response rating, Foxtail, Giant [3, 12]: 0
Plant response rating, Foxtail, Giant [3, 19]: 0
Foxtail, Giant plant response rating [3, 14]: 0
Plant response rating, Kochia (kochia (Kochia scoparia); [18]): 0
Plant response rating, Kochia (kochia (Kochia scoparia); [12]): 0
Plant response rating, Kochia (kochia (Kochia scoparia); [19]): 0
Kochia plant response rating (kochia (Kochia scoparia); [14]): 0
Plant response rating, Pigweed [4, 18]: 0
Plant response rating, Pigweed [4, 12]: 0
Plant response rating, Pigweed [4, 19]: 0
Pigweed plant response rating [4, 14]: 0
Plant response rating, Ragweed [5, 18]: 0
Plant response rating, Ragweed [5, 12]: 0
Plant response rating, Ragweed [5, 19]: 0
Ragweed plant response rating [5, 14]: 0
Plant response rating, Wheat [6, 12]: 0
Plant response rating, Wheat [6, 19]: 0
Plant response rating, Blackgrass [7, 12]: 0
Plant response rating, Blackgrass [7, 19]: 0
Plant response rating, Galium [8, 12]: 0
Plant response rating, Galium [8, 19]: 0
Barnyardgrass plant response rating [9]: 0
Ducksalad plant response rating [10]: 50
Rice plant response rating (rice (Oryza sativa)): 0
Sedge, Umbrella plant response rating [11]: 0

Reference: patent US10131652B2, “Pyrimidinyloxy benzene derivatives as herbicides” (E. I. DU PONT DE NEMOURS AND COMPANY, priority 2014, dated 2018)
